Broadly, the IC50 is the concentration that inhibits the measured activity by half. Read a low IC50 as greater potency.

Common to all, as to type: biochemical
The target in one test is T1, JAK1 (Homo sapiens, UniProt P23458).
T1 construct: purchased Invitrogen Corporation, Carlsbad, Calif; IVGN PV4775
As to the kind of experiment: JAK1 Inhibition Assay (Omnia kinase fluorescence peptide substrate). Particulars: averaged IC50 ranges; 40 μM (Km app) or 1 mM ATP, 15 nM JAK1. In a few lines:
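15 nM JAK1, 8 μM Omnia Y12 peptide, 40 μM (Km app) or 1 mM ATP; 25 mM HEPES pH 7.4, 10 mM MgCl2, 2% DMSO. Fluorescence (ex 360/em 485 nm) read every 50 s over 45 min. IC50 by 4-parameter fit of percent of control, top dose 10 μM.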

For the next test, the target named is T2, Human Tyk2 kinase domain (Homo sapiens, UniProt P29597).
T2 construct: comprising amino acids 886 to 1187; His10 (10 histidine residues) (C, cleaved yes); made in house
T2 sequence (P29597 886-1187): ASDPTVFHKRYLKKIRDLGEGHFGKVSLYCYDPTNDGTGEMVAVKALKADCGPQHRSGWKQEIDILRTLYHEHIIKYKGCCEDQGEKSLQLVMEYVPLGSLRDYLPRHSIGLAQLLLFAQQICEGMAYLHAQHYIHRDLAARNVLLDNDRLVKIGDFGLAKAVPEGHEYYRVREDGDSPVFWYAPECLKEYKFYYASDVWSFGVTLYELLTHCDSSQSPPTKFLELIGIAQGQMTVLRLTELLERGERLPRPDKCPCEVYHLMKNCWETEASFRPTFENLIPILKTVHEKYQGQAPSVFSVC
As to the kind of experiment: Tyk2 Inhibition Assay (Omnia kinase fluorescence peptide substrate). As to conditions: averaged IC50 ranges; 10 μM (Km app) or 1 mM ATP, 2 nM Tyk2. Put shortly:
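Phosphorylation of 8 μM Omnia Y12 peptide followed kinetically by Sox fluorescence, ex 360/em 485 nm, every 50 s for 45 min. Enzyme: 2 nM Tyk2 kinase domain (aa 886–1187, His tag removed); ATP at 10 μM (Km app) or 1 mM; buffer HEPES pH 7.4 with MgCl2, Triton X-100, DTT. 10-point curves up to 10 μM, IC50 from 4-parameter logistic fit.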

A further test deals with T3, JAK3 (Homo sapiens, UniProt P52333).
T3 construct: purchased Invitrogen Corporation, Carlsbad, Calif; IVGN PV4080
T3 sequence (P52333 1-1124): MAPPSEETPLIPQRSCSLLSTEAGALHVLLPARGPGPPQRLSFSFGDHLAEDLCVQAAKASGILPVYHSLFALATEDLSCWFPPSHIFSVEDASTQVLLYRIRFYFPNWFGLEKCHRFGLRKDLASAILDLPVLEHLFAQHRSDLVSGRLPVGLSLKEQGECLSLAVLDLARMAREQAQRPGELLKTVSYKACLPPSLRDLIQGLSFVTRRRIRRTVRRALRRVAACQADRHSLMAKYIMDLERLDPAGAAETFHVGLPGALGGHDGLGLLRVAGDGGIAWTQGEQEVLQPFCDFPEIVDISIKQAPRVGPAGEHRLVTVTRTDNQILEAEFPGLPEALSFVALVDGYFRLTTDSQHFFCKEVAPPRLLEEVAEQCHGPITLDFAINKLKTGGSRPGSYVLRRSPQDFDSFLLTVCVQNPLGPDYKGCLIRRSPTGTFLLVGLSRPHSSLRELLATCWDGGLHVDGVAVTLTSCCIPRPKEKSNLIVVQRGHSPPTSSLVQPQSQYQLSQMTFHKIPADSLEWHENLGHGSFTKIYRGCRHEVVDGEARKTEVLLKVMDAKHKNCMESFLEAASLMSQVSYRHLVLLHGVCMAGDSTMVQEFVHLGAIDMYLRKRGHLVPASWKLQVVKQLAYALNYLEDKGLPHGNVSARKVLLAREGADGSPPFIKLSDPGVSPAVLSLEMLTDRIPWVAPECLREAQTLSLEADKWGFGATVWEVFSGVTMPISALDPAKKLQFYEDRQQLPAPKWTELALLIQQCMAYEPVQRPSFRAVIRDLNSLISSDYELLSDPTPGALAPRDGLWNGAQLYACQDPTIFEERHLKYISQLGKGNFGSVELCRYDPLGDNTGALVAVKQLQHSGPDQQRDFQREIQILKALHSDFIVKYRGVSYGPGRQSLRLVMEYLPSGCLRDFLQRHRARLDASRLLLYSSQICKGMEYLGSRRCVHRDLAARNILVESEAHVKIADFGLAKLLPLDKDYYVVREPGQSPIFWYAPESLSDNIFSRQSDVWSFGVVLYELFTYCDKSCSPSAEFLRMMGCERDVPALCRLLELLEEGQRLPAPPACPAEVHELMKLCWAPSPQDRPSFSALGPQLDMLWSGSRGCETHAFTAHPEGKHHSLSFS
As to the kind of experiment: JAK3 Inhibition Assay (Omnia kinase fluorescence peptide substrate). As to conditions: averaged IC50 ranges; 10 μM (Km app) or 1 mM ATP, 2.5 nM JAK3. Put shortly: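 IC50 is the concentration giving 50 percent of control on a 4-parameter logistic fit of 10-point, 3-fold dilutions from a 10 μM top dose, at 2% final DMSO. Kinetic Sox fluorescence (360/485 nm) was monitored every 50 s for 45 min. Mix: JAK3 2.5 nM, Omnia Y7 peptide 10 μM, ATP 10 μM (Km app) or 1 mM, in HEPES pH 7.4 buffer with MgCl2, Triton X-100 and DTT.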

A further test deals with T4, JAK2 (Homo sapiens, UniProt O60674).
T4 construct: purchased Invitrogen Corporation, Carlsbad, Calif; IVGN PV4288
As to the kind of experiment: JAK2 Inhibition Assay (Omnia kinase fluorescence peptide substrate). Particulars: averaged IC50 ranges; 25 μM (Km app) or 1 mM ATP, 5 nM JAK2.

T4 sequence (O60674 whole entry): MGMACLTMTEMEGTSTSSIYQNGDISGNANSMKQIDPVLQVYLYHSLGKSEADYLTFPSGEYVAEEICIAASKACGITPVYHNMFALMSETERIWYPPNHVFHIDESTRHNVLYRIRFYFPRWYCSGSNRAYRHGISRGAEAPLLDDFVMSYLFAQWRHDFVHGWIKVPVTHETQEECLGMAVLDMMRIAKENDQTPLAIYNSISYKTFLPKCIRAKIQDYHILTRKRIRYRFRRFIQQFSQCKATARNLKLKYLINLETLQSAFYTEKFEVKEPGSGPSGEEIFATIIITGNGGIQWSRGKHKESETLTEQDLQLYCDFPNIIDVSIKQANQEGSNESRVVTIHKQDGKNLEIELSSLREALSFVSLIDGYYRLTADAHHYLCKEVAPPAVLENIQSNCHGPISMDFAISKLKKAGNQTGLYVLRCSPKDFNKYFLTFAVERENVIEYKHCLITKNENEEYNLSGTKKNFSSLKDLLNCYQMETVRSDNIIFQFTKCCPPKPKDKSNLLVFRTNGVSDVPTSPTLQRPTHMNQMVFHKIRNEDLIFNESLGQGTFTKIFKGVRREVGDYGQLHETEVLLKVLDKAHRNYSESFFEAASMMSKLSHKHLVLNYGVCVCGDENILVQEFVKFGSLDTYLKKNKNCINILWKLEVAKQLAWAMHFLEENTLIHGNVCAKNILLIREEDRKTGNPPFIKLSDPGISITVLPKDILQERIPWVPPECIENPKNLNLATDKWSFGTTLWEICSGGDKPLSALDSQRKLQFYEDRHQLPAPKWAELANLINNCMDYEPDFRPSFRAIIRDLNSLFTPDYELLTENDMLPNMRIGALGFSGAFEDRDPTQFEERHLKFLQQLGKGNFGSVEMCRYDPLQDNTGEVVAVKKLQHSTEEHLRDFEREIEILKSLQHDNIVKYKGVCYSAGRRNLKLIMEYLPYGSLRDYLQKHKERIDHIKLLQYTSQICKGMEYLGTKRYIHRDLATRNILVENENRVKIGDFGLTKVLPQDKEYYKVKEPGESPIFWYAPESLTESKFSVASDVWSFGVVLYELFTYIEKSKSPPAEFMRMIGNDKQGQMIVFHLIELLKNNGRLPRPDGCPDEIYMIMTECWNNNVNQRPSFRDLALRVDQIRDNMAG
T1 sequence (P23458 whole entry): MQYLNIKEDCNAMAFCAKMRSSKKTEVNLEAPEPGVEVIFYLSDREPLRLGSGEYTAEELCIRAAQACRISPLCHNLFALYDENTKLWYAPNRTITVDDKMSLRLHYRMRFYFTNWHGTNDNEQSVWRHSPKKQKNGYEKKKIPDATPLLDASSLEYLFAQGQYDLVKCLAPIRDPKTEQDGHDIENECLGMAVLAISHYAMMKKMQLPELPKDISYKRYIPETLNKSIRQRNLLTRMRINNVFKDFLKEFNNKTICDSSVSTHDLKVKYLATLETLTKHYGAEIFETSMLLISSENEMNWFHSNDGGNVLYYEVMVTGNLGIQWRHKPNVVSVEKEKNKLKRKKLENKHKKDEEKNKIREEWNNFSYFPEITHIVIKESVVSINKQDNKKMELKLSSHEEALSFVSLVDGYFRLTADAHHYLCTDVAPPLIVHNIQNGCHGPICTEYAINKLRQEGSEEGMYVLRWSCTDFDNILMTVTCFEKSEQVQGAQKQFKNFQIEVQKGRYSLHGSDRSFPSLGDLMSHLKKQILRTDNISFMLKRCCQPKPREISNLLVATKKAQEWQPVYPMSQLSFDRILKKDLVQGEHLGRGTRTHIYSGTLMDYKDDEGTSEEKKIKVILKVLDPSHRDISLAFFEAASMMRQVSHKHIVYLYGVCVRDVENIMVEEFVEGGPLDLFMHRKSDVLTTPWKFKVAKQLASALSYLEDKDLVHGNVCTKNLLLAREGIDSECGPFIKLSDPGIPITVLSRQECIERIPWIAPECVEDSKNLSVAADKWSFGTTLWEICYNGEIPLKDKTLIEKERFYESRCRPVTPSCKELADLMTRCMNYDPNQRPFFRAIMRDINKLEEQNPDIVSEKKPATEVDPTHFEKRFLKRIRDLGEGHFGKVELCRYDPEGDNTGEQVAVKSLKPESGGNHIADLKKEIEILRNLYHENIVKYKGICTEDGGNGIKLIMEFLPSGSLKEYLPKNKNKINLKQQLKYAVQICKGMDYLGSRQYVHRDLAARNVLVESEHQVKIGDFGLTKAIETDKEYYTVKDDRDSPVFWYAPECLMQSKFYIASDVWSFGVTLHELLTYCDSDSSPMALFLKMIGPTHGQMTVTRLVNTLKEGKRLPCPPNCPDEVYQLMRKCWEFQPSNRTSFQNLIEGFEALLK

For the molecule `C=CCC(CC1CC1)n1cc(-c2nc(-c3cnn(C)c3)cc3nccn23)cn1` (centres unmarked) [Example 10, 5-(1-(1-Cyclopropylpent-4-en-2-yl)-1H-pyrazol-4-yl)-7-(1-methyl-1H-pyrazol-4-yl)imidazo[1,2-c]pyrimidine], the half-maximal inhibitory concentration (IC50) against JAK1 was 100 to 1000 nM; against Human Tyk2 kinase domain, below 10 nM; on JAK3, 100 to 1000 nM; at JAK2, 10 to 100 nM.
Turning to `Cn1cc(-c2cc3nccn3c(-c3ccn([C@@H](C[C@@H](O)C(F)(F)F)C4CC4)c3)n2)cn1` [Example 101, (2R,4S)-4-cyclopropyl-1,1,1-trifluoro-4-(3-(7-(1-methyl-1H-pyrazol-4-yl)imidazo[1,2-c]pyrimidin-5-yl)-1H-pyrrol-1-yl)butan-2-ol], the IC50 at JAK1, against Human Tyk2 kinase domain, against JAK3 and on JAK2 was 100 to 1000 nM throughout.
Consider `CC[C@H](CCF)n1cc(-c2nc(-c3cnn(C)c3)cc3nccn23)cn1` [Example 42, (R)-5-(1-(1-fluoropentan-3-yl)-1H-pyrazol-4-yl)-7-(1-methyl-1H-pyrazol-4-yl)imidazo[1,2-c]pyrimidine], for which the half-inhibitory concentration (IC50) is 100 to 1000 nM at JAK1, below 10 nM on Human Tyk2 kinase domain, 100 to 1000 nM at JAK3 and 10 to 100 nM at JAK2.
With `C=CCC1(n2cc(-c3nc(-c4cnn(C)c4)cc4nccn34)cn2)CN(S(=O)(=O)C(F)(F)F)C1` [Example 91, 5-(1-(3-allyl-1-((trifluoromethyl)sulfonyl)azetidin-3-yl)-1H-pyrazol-4-yl)-7-(1-methyl-1H-pyrazol-4-yl)imidazo[1,2-c]pyrimidine], the IC50 at JAK1 was 10 to 100 nM; against Human Tyk2 kinase domain it was below 10 nM; on JAK3, 100 to 1000 nM; against JAK2 it was 10 to 100 nM.
For the molecule `CCOC(=O)CC(C1CC1)n1cc(-c2nc(-c3cnn(C)c3)cc3nccn23)cn1` (centres unmarked) [Example 12, Ethyl 3-cyclopropyl-3-(4-(7-(1-methyl-1H-pyrazol-4-yl)imidazo[1,2-c]pyrimidin-5-yl)-1H-pyrazol-1-yl)propanoate], the half-maximal inhibitory concentration (IC50) against JAK1 was above 1000 nM; against Human Tyk2 kinase domain, 100 to 1000 nM; against JAK3, above 1000 nM; at JAK2, above 1000 nM.
Regarding `Cn1cc(-c2cc3nccn3c(-c3cnn(C(CCO)C4CCC4)c3)n2)cn1` (centres unmarked) [Example 68, 3-cyclobutyl-3-(4-(7-(1-methyl-1H-pyrazol-4-yl)imidazo[1,2-c]pyrimidin-5-yl)-1H-pyrazol-1-yl)propan-1-ol], the half-inhibitory concentration (IC50) is above 1000 nM against JAK1, 100 to 1000 nM on Human Tyk2 kinase domain, above 1000 nM at JAK3 and above 1000 nM on JAK2.
Turning to `CCOC(=O)CC1(n2cc(-c3nc(-c4cnn(C)c4)cc4nccn34)cn2)CN(S(=O)(=O)C(F)(F)F)C1` [Example 1, ethyl 2-(3-(4-(7-(1-methyl-1H-pyrazol-4-yl)imidazo[1,2-c]pyrimidin-5-yl)-1H-pyrazol-1-yl)-1-(trifluoromethylsulfonyl)azetidin-3-yl)acetate], the IC50 at JAK1 is above 1000 nM; against Human Tyk2 kinase domain, 100 to 1000 nM; against JAK3, above 1000 nM; at JAK2, above 1000 nM.
Consider `COCCn1cc(-c2cc3nccn3c(-c3cnn(C4(CCF)CN(S(=O)(=O)C(F)(F)F)C4)c3)n2)cn1` [Example 89, 5-(1-(3-(2-fluoroethyl)-1-((trifluoromethyl)sulfonyl)azetidin-3-yl)-1H-pyrazol-4-yl)-7-(1-(2-methoxyethyl)-1H-pyrazol-4-yl)imidazo[1,2-c]pyrimidine], for which the half-inhibitory concentration (IC50) against JAK1 was 10 to 100 nM; against Human Tyk2 kinase domain it was below 10 nM; against JAK3, 100 to 1000 nM; against JAK2 it was 10 to 100 nM.
With `Cn1cc(-c2cc3nccn3c(-c3cnn(C(CCF)C4CCCC4)c3)n2)cn1` (centres unmarked) [Example 66, 5-(1-(1-cyclopentyl-3-fluoropropyl)-1H-pyrazol-4-yl)-7-(1-methyl-1H-pyrazol-4-yl)imidazo[1,2-c]pyrimidine], the half-inhibitory concentration (IC50) against JAK1 is 100 to 1000 nM; on Human Tyk2 kinase domain it was below 10 nM; on JAK3, 100 to 1000 nM; against JAK2 it was 10 to 100 nM.
In the case of `COCCC1(n2cc(-c3nc(-c4cnn(C)c4)cc4nccn34)cn2)CCC1` [Example 53, 5-(1-(1-(2-methoxyethyl)cyclobutyl)-1H-pyrazol-4-yl)-7-(1-methyl-1H-pyrazol-4-yl)imidazo[1,2-c]pyrimidine], the IC50 on JAK1 was above 1000 nM; at Human Tyk2 kinase domain, 100 to 1000 nM; at JAK3, 100 to 1000 nM; at JAK2, 100 to 1000 nM.
As for `Cn1cc(-c2cc3nccn3c(-c3ccn([C@H](CCF)[C@@H]4CC4(F)F)c3)n2)cn1` [Example 28, 5-(1-((R)-1-((S)-2,2-difluorocyclopropyl)-3-fluoropropyl)-1H-pyrrol-3-yl)-7-(1-methyl-1H-pyrazol-4-yl)imidazo[1,2-c]pyrimidine], the concentration for half-maximal inhibition (IC50) against JAK1 lay in the range of 100 to 1000 nM; against Human Tyk2 kinase domain, 10 to 100 nM; on JAK3, 100 to 1000 nM; against JAK2, 10 to 100 nM.
As to `CC=CCC1(n2cc(-c3nc(-c4cnn(C)c4)cc4nccn34)cn2)CN(S(=O)(=O)C(F)(F)F)C1` [Example 90, 5-(1-(3-(but-2-en-1-yl)-1-((trifluoromethyl)sulfonyl)azetidin-3-yl)-1H-pyrazol-4-yl)-7-(1-methyl-1H-pyrazol-4-yl)imidazo[1,2-c]pyrimidine], the half-inhibitory concentration (IC50) against JAK1, on Human Tyk2 kinase domain, on JAK3 and on JAK2 was 10 to 100 nM throughout.
For the molecule `Cn1cc(-c2cc3nccn3c(-c3cnn([C@@H](CCF)C4CCC4)c3)n2)cn1` [Example 37, (S)-5-(1-(1-cyclobutyl-3-fluoropropyl)-1H-pyrazol-4-yl)-7-(1-methyl-1H-pyrazol-4-yl)imidazo[1,2-c]pyrimidine], the IC50 on JAK1 was 100 to 1000 nM; against Human Tyk2 kinase domain, 10 to 100 nM; against JAK3, 100 to 1000 nM; on JAK2, 100 to 1000 nM.
Take `Cn1cc(-c2cc3nccn3c(-c3cnn(C4(CC(=O)O)CN(S(=O)(=O)C(F)(F)F)C4)c3)n2)cn1` [Example 2, 2-(3-(4-(7-(1-methyl-1H-pyrazol-4-yl)imidazo[1,2-c]pyrimidin-5-yl)-1H-pyrazol-1-yl)-1-((trifluoromethyl)sulfonyl)azetidin-3-yl)acetic acid]: the IC50 is above 1000 nM at JAK1, 100 to 1000 nM at Human Tyk2 kinase domain, above 1000 nM against JAK3 and above 1000 nM against JAK2.

The record behind these values is US20140228349A1, “5,7-SUBSTITUTED-IMIDAZO[1,2-C]PYRIMIDINES” (Array BioPharma Inc., priority 2011, published 2014).
